Activity calls are given as the source filed them. The calls are words filed in the database; no cut-off is given here.
Columns and labels:
[1] = Upregulation of Bax protein expression in human EC109 cells at 5 to 10 uM after 24 hrs by Western blot analysis; assay type: functional, cell-based; details: ECa-109
[2] = Downregulation of MDM2 protein expression in human EC109 cells at 5 to 10 uM after 24 hrs by Western blot analysis; assay type: functional, cell-based; details: ECa-109
ECa-109 cell line [3] = test: Induction of apoptosis in human EC109 cells assessed as change in cellular morphology at 1.25 to 20 uM after 24 hrs by inverted microscopic analysis; assay type: functional, cell-based
ECa-109 cell line [4] = test: Induction of apoptosis in human EC109 cells assessed as nuclear condensation at 1.25 to 20 uM after 24 hrs by Hoechst 33258 staining-based fluorescence microscopic analysis; assay type: functional, cell-based
[5] = Cell cycle arrest in human EC109 cells assessed as accumulation at G2/M phase at 2.5 to 10 uM by propidium iodide staining-based flow cytometric analysis; assay type: functional; details: ECa-109, TDE = time-dependent effect
[6] = Cell cycle arrest in human EC109 cells assessed as accumulation at G2/M phase after 12 to 24 hrs by propidium iodide staining-based flow cytometric analysis; assay type: functional; details: ECa-109
[7] = Cell cycle arrest in human EC109 cells assessed as accumulation at G2/M phase at 10 uM after 24 hrs by propidium iodide staining-based flow cytometric analysis (reference value: 6.31%); assay type: functional; details: ECa-109
[8] = Cell cycle arrest in human EC109 cells assessed as accumulation at G0/G1 phase at 10 uM after 24 hrs by propidium iodide staining-based flow cytometric analysis (reference value: 51.57%); assay type: functional; details: ECa-109
[9] = Cell cycle arrest in human EC109 cells assessed as accumulation at S phase at 5 uM after 24 hrs by propidium iodide staining-based flow cytometric analysis (reference value: 37.99%); assay type: functional; details: ECa-109
[10] = Cell cycle arrest in human EC109 cells assessed as accumulation at G0/G1 phase at 5 uM after 24 hrs by propidium iodide staining-based flow cytometric analysis (reference value: 51.57%); assay type: functional; details: ECa-109
[11] = Cell cycle arrest in human EC109 cells assessed as accumulation at S phase at 2.5 uM after 24 hrs by propidium iodide staining-based flow cytometric analysis (reference value: 37.99%); assay type: functional; details: ECa-109
[12] = Cell cycle arrest in human EC109 cells assessed as accumulation at G2/M phase at 10 uM after 12 hrs by propidium iodide staining-based flow cytometric analysis (reference value: 13.72%); assay type: functional; details: ECa-109
[13] = Cell cycle arrest in human EC109 cells assessed as accumulation at S phase at 5 uM after 12 hrs by propidium iodide staining-based flow cytometric analysis (reference value: 33.29%); assay type: functional; details: ECa-109
[14] = Cell cycle arrest in human EC109 cells assessed as accumulation at S phase at 2.5 uM after 12 hrs by propidium iodide staining-based flow cytometric analysis (reference value: 33.29%); assay type: functional; details: ECa-109
ECa-109 cell line [15] = test: Induction of apoptosis in human EC109 cells assessed as increase in early apoptotic cells after 12 to 24 hrs by annexin V-FITC/propidium iodide staining-based flow cytometric analysis; assay type: functional, cell-based
ECa-109 cell line [16] = test: Induction of apoptosis in human EC109 cells assessed as late apoptotic cells at 40 uM after 24 hrs by annexin V-FITC/propidium iodide staining-based flow cytometric analysis (reference value: 2.5%); assay type: functional
ECa-109 cell line [17] = test: Induction of apoptosis in human EC109 cells assessed as early apoptotic cells at 20 uM after 24 hrs by annexin V-FITC/propidium iodide staining-based flow cytometric analysis (reference value: 3.8%); assay type: functional
ECa-109 cell line [18] = test: Induction of apoptosis in human EC109 cells assessed as live cells at 10 uM after 24 hrs by annexin V-FITC/propidium iodide staining-based flow cytometric analysis (reference value: 93.6%); assay type: functional
ECa-109 cell line [19] = test: Induction of apoptosis in human EC109 cells assessed as late apoptotic cells at 10 uM after 24 hrs by annexin V-FITC/propidium iodide staining-based flow cytometric analysis (reference value: 2.5%); assay type: functional
ECa-109 cell line [20] = test: Induction of apoptosis in human EC109 cells assessed as damaged cells at 5 uM after 24 hrs by annexin V-FITC/propidium iodide staining-based flow cytometric analysis (reference value: 0.1%); assay type: functional
ECa-109 cell line [21] = test: Induction of apoptosis in human EC109 cells assessed as live cells at 2.5 uM after 24 hrs by annexin V-FITC/propidium iodide staining-based flow cytometric analysis (reference value: 93.6%); assay type: functional
ECa-109 cell line [22] = test: Induction of apoptosis in human EC109 cells assessed as late apoptotic cells at 2.5 uM after 24 hrs by annexin V-FITC/propidium iodide staining-based flow cytometric analysis (reference value: 2.5%); assay type: functional
ECa-109 cell line [23] = test: Induction of apoptosis in human EC109 cells assessed as live cells at 20 uM after 12 hrs by annexin V-FITC/propidium iodide staining-based flow cytometric analysis (reference value: 92.1%); assay type: functional
ECa-109 cell line [24] = test: Induction of apoptosis in human EC109 cells assessed as late apoptotic cells at 20 uM after 12 hrs by annexin V-FITC/propidium iodide staining-based flow cytometric analysis (reference value: 1.4%); assay type: functional
ECa-109 cell line [25] = test: Induction of apoptosis in human EC109 cells assessed as live cells at 10 uM after 12 hrs by annexin V-FITC/propidium iodide staining-based flow cytometric analysis (reference value: 92.1%); assay type: functional
ECa-109 cell line [26] = test: Induction of apoptosis in human EC109 cells assessed as late apoptotic cells at 10 uM after 12 hrs by annexin V-FITC/propidium iodide staining-based flow cytometric analysis (reference value: 1.4%); assay type: functional
ECa-109 cell line [27] = test: Induction of apoptosis in human EC109 cells assessed as late apoptotic cells at 5 uM after 12 hrs by annexin V-FITC/propidium iodide staining-based flow cytometric analysis (reference value: 1.4%); assay type: functional
ECa-109 cell line [28] = test: Induction of apoptosis in human EC109 cells assessed as early apoptotic cells at 5 uM after 12 hrs by annexin V-FITC/propidium iodide staining-based flow cytometric analysis (reference value: 6.1%); assay type: functional
ECa-109 cell line [29] = test: Induction of apoptosis in human EC109 cells assessed as live cells at 2.5 uM after 12 hrs by annexin V-FITC/propidium iodide staining-based flow cytometric analysis (reference value: 92.1%); assay type: functional
ECa-109 cell line [30] = test: Induction of apoptosis in human EC109 cells assessed as late apoptotic cells at 2.5 uM after 12 hrs by annexin V-FITC/propidium iodide staining-based flow cytometric analysis (reference value: 1.4%); assay type: functional
MCF7 = test: Cytotoxicity against human MCF7 cells assessed as growth inhibition after 72 hrs by MTT assay; assay type: functional, cell-based; details: MCF7, 72 h
MGC-803 = test: Cytotoxicity against human MGC803 cells assessed as growth inhibition after 72 hrs by MTT assay; assay type: functional, cell-based; details: MGC-803, 72 h
ECa-109 cell line [31] = test: Induction of apoptosis in human EC109 cells assessed as increase in late apoptotic cells at 2.5 to 40 uM by annexin V-FITC/propidium iodide staining-based flow cytometric analysis; assay type: functional, cell-based; details: TDE = time-dependent effect
ECa-109 cell line [32] = test: Induction of apoptosis in human EC109 cells assessed as increase in late apoptotic cells after 12 to 24 hrs by annexin V-FITC/propidium iodide staining-based flow cytometric analysis; assay type: functional, cell-based
ECa-109 cell line [33] = test: Induction of apoptosis in human EC109 cells assessed as activation of caspase-3/9 at 5 to 10 uM after 24 hrs by Western blot analysis; assay type: functional, cell-based

For `C[C@]12CC[C@H](O)CC1=CC[C@@H]1[C@@H]2CC[C@]2(C)c3nc4ncnn4c(-c4cccc(-c5c6c(nc7ncnn57)[C@@]5(C)CC[C@H]7[C@@H](CC=C8C[C@@H](O)CC[C@@]87C)[C@@H]5C6)c4)c3C[C@@H]12`, the Activity [1] was “Active”, the Activity [2] was “Active” and the Activity (ECa-109 cell line [3]) was “Active”. The Activity (ECa-109 cell line [4]) was “Active”, the Activity [5] was “tde” and the Activity [6] was “Dose-dependent effect”. The Activity [7] was 25.1%, the Activity [8] was 45% and the Activity [9] was 27%. The Activity [10] was 47.1%, the Activity [11] was 43.5% and the Activity [12] was 28.3%. The Activity [13] was 29.5%, the Activity [14] was 34.2% and the Activity (ECa-109 cell line [15]) was “Dose-dependent effect”. The Activity (ECa-109 cell line [16]) was 78.4%, the Activity (ECa-109 cell line [17]) was 31.5% and the Activity (ECa-109 cell line [18]) was 25.4%. It also gave an Activity (ECa-109 cell line [19]) of 47.7%, an Activity (ECa-109 cell line [20]) of 0.4% and an Activity (ECa-109 cell line [21]) of 72.3%. It also gave an Activity (ECa-109 cell line [22]) of 2.5%, an Activity (ECa-109 cell line [23]) of 12.8% and an Activity (ECa-109 cell line [24]) of 51.1%. It also gave an Activity (ECa-109 cell line [25]) of 54%, an Activity (ECa-109 cell line [26]) of 23.4% and an Activity (ECa-109 cell line [27]) of 14%. For the same compound, the Activity (ECa-109 cell line [28]) was 24.1%, the Activity (ECa-109 cell line [29]) was 58.3% and the Activity (ECa-109 cell line [30]) was 13.1%. For the same compound, the IC50 (MCF7) was 1190 nM, the IC50 (MGC-803) was 130 nM and the Activity (ECa-109 cell line [31]) was “tde”. For the same compound, the Activity (ECa-109 cell line [32]) was “Dose-dependent effect” and the Activity (ECa-109 cell line [33]) was “Active”.

From ChEMBL document CHEMBL2434882, “A novel [1,2,4] triazolo [1,5-a] pyrimidine-based phenyl-linked steroid dimer: synthesis and its cytotoxic activity” (Eur J Med Chem, 2013)
